Reference: ChEMBL document CHEMBL3758072, “Amphiphilic nanoparticles of resveratrol-norcantharidin to enhance the toxicity in zebrafish embryo” (Bioorg Med Chem Lett, 2016)
Active and inactive are the calls of the source. The calls are words filed in the database; no cut-off is given here.

Columns and labels:
Danio rerio [1] = species on record: Danio rerio; experiment: Cytotoxicity in zebrafish embryo assessed as survival rate at 10 ppm after 80 mins relative to control; type: functional
Danio rerio [2] = species on record: Danio rerio; experiment: Cytotoxicity in zebrafish embryo assessed as survival rate at 25 ppm after 80 mins relative to control; type: functional
Danio rerio [3] = species on record: Danio rerio; experiment: Cytotoxicity in zebrafish embryo assessed as survival rate at 50 ppm after 80 mins relative to control; type: functional
Escherichia coli = experiment: Antibacterial activity against Escherichia coli assessed as inhibition of microbial growth; type: functional, organism-based
[4] = Drug accumulation in zebrafish embryo stomach at 10 ppm incubated for 80 mins; type: ADME, tissue-based, Danio rerio; conditions: in vivo
[5] = Drug accumulation in zebrafish embryo skin at 10 ppm incubated for 80 mins; type: ADME, Danio rerio, Zone of skin; conditions: in vivo
[6] = Drug accumulation in zebrafish embryo muscle at 10 ppm incubated for 80 mins; type: ADME, Danio rerio, Muscle tissue; conditions: in vivo
[7] = Drug accumulation in zebrafish embryo intestinal villi at 10 ppm incubated for 80 mins; type: ADME, Danio rerio; conditions: in vivo

SMILES	Survival (Danio rerio [1]) [%]	Survival (Danio rerio [2]) [%]	Survival (Danio rerio [3]) [%]	growth inhibition (GI) (Escherichia coli)	Drug uptake [4]	Drug uptake [5]	Drug uptake [6]	Drug uptake [7]
COC(=O)[C@H]1[C@@H](C(=O)Oc2ccc(/C=C/c3cc(O)cc(O)c3)cc2)[C@@H]2CC[C@H]1O2	99.2	99.2	95.8	–	–	–	–	–
O=C1OC(=O)C2C3CCC(O3)C12 (stereo unspecified) [DEMETHYL-CANTHARIDIN]	99.2	96.7	90.8	inactive	–	–	–	–
CCN(CC)c1ccc2c(-c3ccccc3C(=O)NCCNC(=O)[C@@H]3[C@H](C(=O)OC)[C@H]4CC[C@@H]3O4)c3ccc(=[N+](CC)CC)cc-3oc2c1	–	–	–	–	Active	Not Active	Not Active	Active
